# Tested on: glutamatergic neurons on the Brain-Chip
# Assay: Calcium imaging (Fluo-4 AM) of neuronal activity on the Brain-Chip
# Format: cell-based, human
# Conditions: NMDA and AMPA receptor inhibition (DAP5 and CNQX respectively), compared to control without inhibitors
# Source text: FIG. 30A Spontaneous activity was studied by means of calcium imaging, enabling the investigation of neuronal activity of single cells and the network as a whole. Fluo-4 AM, a calcium sensitive fluorescent dye, was loaded onto the cells, and intracellular calcium fluctuations were monitored over time using high-speed imaging. […] FIG. 38A-C Pharmacological Targeting of the Glutamatergic Neurons in the Brain-Chip. […] Scale bars=200 μm. […] FIG. 38A-C Pharmacological Targeting of the Glutamatergic Neurons in the Brain-Chip. […] Scale bars=200 μm.
smiles,measurement,value
"N#Cc1cc2c(cc1[N+](=O)[O-])=NC(=O)C(=O)N=2 [CNQX, 6-cyano-7-nitroquinoxaline-2,3-dione]",effect on percentage of active neurons,reduced the percentage of active neurons

# From US12098356B2, “Effects of space travel on human brain cells” (EMULATE, Inc., priority 2017, dated 2024)
